Active and inactive are the calls of the source. The rule behind the calls is not given here.
Legend:
Heat shock protein HSP90 [1] = target: T1, Heat shock protein HSP90 (Homo sapiens, UniProt P07900+P08238); assay: Inhibition of FITC-geldanamycin binding to N-terminal GST-tagged Hsp90 (unknown origin) expressed in Escherichia coli at 100 uM measured after 15 mins by fluorescence polarization assay relative to control
Homo sapiens = organism: Homo sapiens; assay: Inhibition of N-terminal GST-tagged Hsp90 (unknown origin)-His-tagged Cdc37 middle domain (unknown origin) interaction expressed in Escherichia coli at 50 uM preincubated for 30 mins with GST-tagged Hsp90 (unknown origin) followed by addition of His-tagged Cdc37 middle domain (unknown origin) measured after 1 hr by GST-pulldown assay
Heat shock protein HSP90 [2] = target: T1, Heat shock protein HSP90; assay: Binding affinity to N-terminal GST-tagged Hsp90 (unknown origin) expressed in Escherichia coli by ITC method

Row | Compound | inhibition (Heat shock protein HSP90 [1]) [%] | inhibition (Homo sapiens) | Kd (Heat shock protein HSP90 [2]) [µM]
1 | CC(C)c1cc(C(=O)N2Cc3ccc(CN4CCN(C)CC4)cc3C2)c(O)cc1O | 99.8 | – | –
2 | Ac-KHFGMLRRWDD-NH2 | < 10 | – | 6.9
3 | Ac-KHFGMLRRW-NH2 | < 10 | – | 10.07

The remaining lines, values ahead:

Row | inhibition (Heat shock protein HSP90 [1]) [%] | inhibition (Homo sapiens) | Kd (Heat shock protein HSP90 [2]) [µM] | Compound
4 | < 10 | Active | 5.99 | Ac-HFGMLRR-NH2
5 | < 10 | – | 7.41 | Ac-KHFGMLRR-NH2
6 | < 10 | – | 21 | Ac-KHFGMLRRWD-NH2

From ChEMBL document CHEMBL3868604, “Optimization and bioevaluation of Cdc37-derived peptides: An insight into Hsp90-Cdc37 protein-protein interaction modulators” (Bioorg Med Chem, 2017)
